Results reported in patent publication US12357711B2, “PSMA binding dual mode radiotracer and therapeutic” (Technische Universität München, priority 2019, dated 2025).
Values joined by “and” are separate entries in the source; they are usually repeats but may differ in a detail not shown here. Equal entries are not always repeated. Where two headings read alike, the source gives them in different places. Marks after values point to notes of the source that are not given here.

What was measured:
[1] = tested on: LNCaP tumor-bearing SCID mice; assay: Biodistribution at 1 h p.i.; type: in vivo; settings: for Biodistribution tumor: LNCaP tumor
Method: FIG. 10: Biodistribution (in % ID/g) of ^18E-labeled rhPSMA tracers at 1 h p.i in LNCaP tumor-bearing SCID mice. Data are expressed as mean±SD (n=4 for rhPSMA7.1, n=5 for 7.2, n=4 for 7.3, n=5 for 7.4 and n=3 for 7-rac).

[2] = tested on: LNCaP tumor bearing mouse; assay: Radio-TLC analysis of intact tracer and 18F-fluoride in blood, organ and urine samples, 30 min p.i.; type: in vivo, mice
Method: For radio-thin-layer chromatography, aluminum sheets coated with silica gel 60 RP-18 F254s were used with a mobile phase consisting of a 3:2 mixture (v/v) of MeCN in H2O supplemented with 10% of 2 M aqueous NaOAc and 1% of TFA. Analysis was performed using either a Scan-RAM radio-TLC detector (LabLogic Systems Ltd., Sheffield, United Kingdom) or a CR 35 BIO phosphorimager (Duerr Medical GmbH, Bietigheim-Bissingen, Germany).
In order to quantify the relative uptake of each isomer (rhPSMA-7.1-7.4), a tumor-bearing male CB-17-SCID mouse was injected with the racemic mixture of rhPSMA-7 (180-280 MBq, SA=247-349 GBq/μmol, produced at the Klinikum rechts der Isar in a fully automated procedure). The animal was left under anesthesia for 30 min and sacrificed. Urine, blood, liver, kidneys and tumor were collected and processed to the hereafter described procedures. The urine sample was centrifuged for 5 min at 9000 rpm to yield a clear solution and directly subjected to radio-HPLC analysis. Blood was diluted to 1 mL with H2O and centrifuged twice at 13000 g for 5 min. The supernatant was collected and loaded on a Strata X cartridge (33 μm Polymeric Reversed Phase 500 mg, pre-conditioned with 5 mL MeOH, followed by 5 mL H2O). After washing with 5 mL H2O, the cartridge was eluted with a 6:4 mixture (v/v) of MeCN in H2O, supplemented with 1% TFA. The eluate was diluted with water and analysed by radio-HPLC. Tumour, kidneys and liver were homogenised using either a Potter-Elvehjem tissue grinder (Kontes Glass Co, Vineland, USA) or a MM-400 ball mill (Retsch GmbH, Haan, Germany).
The organs (tumour, kidney, liver) were separately homogenised in a 2 mL tube together with 3 grinding balls (3 mm diameter) and 1 mL of extraction buffer (850 μL 1 M HEPES pH7.4, 100 μL 20 mM PMPA and 100 μL 1M NaCl) for 10 min at 30 Hz. The homogenate was centrifuged at 13000 g for 5 min and the supernatant was collected. Subsequently, the pellet was suspended in 1 mL of extraction buffer and homogenized again with the ball mill for 10 min at 30 Hz. After centrifugation (13000 g, 5 min), both supernatants were combined and loaded on a Strata X cartridge (33 μm Polymeric Reversed Phase 500 mg, pre-conditioned with 5 mL MeOH, followed by 5 mL H2O). After washing with 5 mL H2O, the cartridge was eluted with a 6:4 mixture (v/v) of MeCN in H2O, supplemented with 1% TFA. The eluate of each organ was diluted with water and analysed by radio-HPLC.
Radio-TLC Analysis was carried out a) on urine samples by directly subjecting a small volume onto a TLC strip, b) by analysis of a small volume of the non-immobilized activity during the SPE process (the ‘breakthrough fraction’), and c) by analysis of a small volume of the cartridge eluates.
Since none of the reagents and salts normally used for protein precipitation are tested for cold fluoride and to avoid possible liberation of F-18-fluoride from the tracer by isotopic exchange, protein precipitation was not implemented in the sample preparation process—although such protein load often result in limited peak separation, peak tailing and activity that sticks at the start line. The solutions obtained after tissue extraction (or blood centrifugation) were directly used for TLC analysis.

PSMA = biological target: T1, PSMA (Homo sapiens, UniProt Q04609); assay: Determination of IC50: PSMA affinity, competitive binding on LNCaP cells against ([125I]I-BA)KuE; settings: LNCaP cells, [125I]IB-KuE c=0.2 nM, 1 h, 4° C.
T1 construct: endogenous in cells; host or cells: LNCaP cells
T1 sequence (Q04609 whole entry): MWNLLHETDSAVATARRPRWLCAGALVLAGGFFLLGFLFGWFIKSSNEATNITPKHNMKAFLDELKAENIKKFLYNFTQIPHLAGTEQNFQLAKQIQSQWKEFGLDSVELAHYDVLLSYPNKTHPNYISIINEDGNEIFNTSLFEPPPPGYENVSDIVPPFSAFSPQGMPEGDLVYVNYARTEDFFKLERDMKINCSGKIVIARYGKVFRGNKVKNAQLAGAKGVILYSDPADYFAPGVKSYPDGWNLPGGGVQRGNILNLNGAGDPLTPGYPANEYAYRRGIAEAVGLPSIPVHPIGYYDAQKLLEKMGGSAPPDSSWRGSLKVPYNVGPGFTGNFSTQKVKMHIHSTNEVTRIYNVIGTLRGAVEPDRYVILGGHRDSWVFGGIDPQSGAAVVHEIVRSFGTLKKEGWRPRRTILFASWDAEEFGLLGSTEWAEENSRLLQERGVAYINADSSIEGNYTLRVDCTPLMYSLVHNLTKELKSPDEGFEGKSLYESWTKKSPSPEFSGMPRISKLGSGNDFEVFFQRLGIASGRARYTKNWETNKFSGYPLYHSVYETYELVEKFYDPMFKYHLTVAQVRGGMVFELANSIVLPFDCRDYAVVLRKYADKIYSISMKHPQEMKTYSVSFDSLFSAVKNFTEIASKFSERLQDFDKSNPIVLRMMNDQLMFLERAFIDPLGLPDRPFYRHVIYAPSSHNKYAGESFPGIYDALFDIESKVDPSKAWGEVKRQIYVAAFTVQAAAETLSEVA
Method: Data are expressed as mean±SD (n=3, in 3 different experiments).
After removal of the culture medium, the cells were treated once with 500 μL of HBSS (Hank's balanced salt solution, Biochrom, Berlin, Germany, with addition of 1% bovine serum albumin (BSA)) and left 15 min on ice for equilibration in 200 μL HBSS (1% BSA). […] Quantification of bound and free radioligand was accomplished in a γ-counter.

[3] = Formation of F-18-fluoride / isotopic exchange in mouse urine; type: in vitro ADME, mice
Method: For in vivo μmetabolism studies, 8-12 MBq (<0.6 nmol) of the respective ^18F-labeled ligand (rhPSMA-7.1-7.4) was injected into the tail vein of female healthy CB17-SCID mice (n=4). Mice were left under anesthesia for 30 min and the urine was collected using a bladder catheter. Urine samples were pooled and centrifuged for 5 min at 9000 rpm to remove suspended solids. The supernatant was directly used for radio-HPLC analysis with the above mentioned conditions. […] Additionally, this experiment was carried out with the addition of excess Na^19F (0.5 μmop and incubation for 2 h with ^18F-labeled rhPSMA-7.3.
For this purpose normal mice were used. Urine samples were collected by means of a catheter over a period of 30 min. The urine was centrifuged and directly subjected to HPLC and TLC.
Consequently, fresh and nonradioactive urine samples collected from normal mice were incubated with [F-18]rhPSMA7.x for various time periods (see legend to FIG. 21).
To further support the hypothesis, 500 nmol cold F-19-fluoride was added to fresh and nonradioactive urine of mice, followed by the addition of [F-18]rhPSMA7.3 and incubation for 2 h. According to the hypothesis, the high concentration of [F-19]fluoride should result in the formation of a significant amount of [F-18]fluoride.

[4] = Phosphoimager, listed as [^18F]rhPSMA7-rac
[5] = TLC Scanner, listed as [^18F]rhPSMA7-rac

| Molecule | Biodistribution adrenals [1] | Biodistribution blood [1] | Biodistribution bone [1] | Biodistribution heart [1] | Biodistribution intestine [1] | Biodistribution kidneys [1] | Biodistribution liver [1] | Biodistribution lung [1] | Biodistribution muscle [1] | Biodistribution pancreas [1] | Biodistribution spleen [1] | Biodistribution stomach [1] | Biodistribution tumor [1] | also measured |
| --- | --- | --- | --- | --- | --- | --- | --- | --- | --- | --- | --- | --- | --- | --- |
| [^19F][^natGa]D/L-Dap-R/S-DOTAGA-rhPSMA7 [rhPSMA7-rac] | 3.0 ± 0.45 % ID/g | 1.1 ± 0.03 % ID/g | 0.91 ± 0.11 % ID/g | 0.69 ± 0.07 % ID/g | 0.60 ± 0.27 % ID/g | 71.3 ± 13.3 % ID/g | 0.67 ± 0.07 % ID/g | 1.4 ± 0.17 % ID/g | 0.36 ± 0.06 % ID/g | 0.60 ± 0.10 % ID/g | 11.1 ± 2.3 % ID/g | 0.49 ± 0.07 % ID/g | 10.4 ± 0.67 % ID/g | Intact tracer, Blood ([2]; Phosphoimager): 96.80%; Intact tracer, Kidney ([2]; Phosphoimager): 96.48%; Intact tracer, Tumor ([2]; Phosphoimager): 96.47%; ^18F-Fluoride, Blood ([2]; Phosphoimager): 3.20%; ^18F-Fluoride, Kidney ([2]; Phosphoimager): 3.52%; ^18F-Fluoride, Tumor ([2]; Phosphoimager): 4.15%; Intact tracer, Liver [2, 4]: 93.92^# % and 74.15^# %; Intact tracer, Urine [2, 4]: 98.55% and 95.85%; ^18F-Fluoride, Urine [2, 4]: 1.55% and 4.15%; Intact tracer, Kidney [2, 5]: 94.04% and 94.58%; Intact tracer, Urine [2, 5]: 82.51% and 96.2%; ^18F-Fluoride, Kidney [2, 5]: 5.96% and 5.42% |
| CC(C)(C)[Si](F)(c1ccc(C(=O)NC[C@@H](NC(=O)CC[C@@H](C(=O)O)N2CCN(CC(=O)[O-])CCN(CC(=O)[O-])CCN(CC(=O)[O-])CC2)C(=O)N[C@H](CCCCNC(=O)CCC(=O)NCCC[C@@H](NC(=O)CC[C@H](NC(=O)N[C@@H](CCC(=O)O)C(=O)O)C(=O)O)C(=O)O)C(=O)O)cc1)C(C)(C)C.[Ga+3] [rhPSMA7.3, [^19F][^natGa]D-Dap-S-DOTAGA-rhPSMA7] | 2.2 ± 0.83 % ID/g | 0.96 ± 0.24 % ID/g | 0.38 ± 0.32 % ID/g | 0.87 ± 0.17 % ID/g | 0.35 ± 0.07 % ID/g | 292 ± 45.1 % ID/g | 0.69 ± 0.13 % ID/g | 2.2 ± 0.35 % ID/g | 0.33 ± 0.15 % ID/g | 0.63 ± 0.44 % ID/g | 16.6 ± 2.6 % ID/g | 0.44 ± 0.23 % ID/g | 18.3 ± 7.2 % ID/g | IC50 (PSMA; HBSS+1% BSA, single measurements, read-out: individual IC50 measurements): 3.17 nM and 2.91 nM and 5.35 nM and 5.74 nM and 4.59 nM and 4.45 nM; IC50 (PSMA; mean of individual measurements, read-out: IC50 Mean): 4.37 nM; radioactivity converted to [F-18]fluoride ([3]; fresh nonradioactive mouse urine + 0.5 μmol (500 nmol) cold F-19-fluoride, incubation 2 h): 98.5%; [F-18]rhPSMA7.3 proportion in radioactive urine after addition of 5 nmol [F-19]rhPSMA7-3 ([3]; room temperature): 85.8%; [F-18]rhPSMA7.3 proportion in radioactive urine before addition of cold tracer ([3]; urine with 20.6% [F-18]Fluoride): 79.4% |
